Experimental data as given in patent US10294202B2, “Pyrrolidinones as herbicides” (FMC Corporation, priority 2013, dated 2019).

Tests used:
Experiment in all cases: Test E preemergence herbicide test
Parameters in all cases: key: 0 = no effect, 100 = complete control
kochia = assay type: in vivo, Kochia scoparia
Text: (§1) Seeds of plant species selected from corn (Zea mays), soybean (Glycine max), velvetleaf (Abutilon theophrasti), lambsquarters (Chenopodium album), wild poinsettia (Euphorbia heterophylla), pigweed, palmer (palmer pigweed, Amaranthus palmeri), waterhemp (common waterhemp, Amaranthus rudis), surinam grass (Brachiaria decumbens), crabgrass, large (large crabgrass, Digitaria sanguinalis), crabgrass, Brazil (Brazilian crabgrass, Digitaria horizontalis), panicum, fall (fall panicum, Panicum dichotomiflorum), foxtail, giant (giant foxtail, Setaria faberii), foxtail, green (green foxtail, Setaria viridis), goosegrass (Eleusine indica), johnsongrass (Sorghum halepense), ragweed (common ragweed, Ambrosia elatior), barnyardgrass (Echinochloa crus-galli), sandbur (southern sandbur, Cenchrus echinatus), arrowleaf […] rhombifolia), ryegrass, Italian (Italian ryegrass, Lolium multiflorum), dayflower, VA (Virginia dayflower, Commelina virginica), field bindweed (Convolvulus arvensis), morningglory (Ipomoea coccinea), nightshade (eastern black nightshade, Solanum ptycanthum), kochia (Kochia scoparia), nutsedge, yellow (yellow nutsedge, Cyperus esculentus), cocklebur (common cocklebur, Xanthium strumarium), smartweed (ladysthumb smartweed, Polygonum Persicaria) and beggarticks (hairy beggarticks, Bidens pilosa), were planted into a silt loam soil and treated preemergence with test chemicals formulated in a non-phytotoxic solvent mixture which included a surfactant. Treated plants and controls were maintained in a greenhouse for 21 days, after which time all species were compared to controls and visually evaluated. Plant response ratings, summarized in Table E, are based on a scale of 0 to 100 where 0 is no effect and 100 is complete control. A dash (-) response means no test result.

barnyardgrass = assay type: in vivo, Echinochloa crus-galli
Text: as §1

panicum, fall = assay type: in vivo, Panicum dichotomiflorum
Text: as §1

crabgrass, large = assay type: in vivo, Digitaria sanguinalis
Text: as §1

ragweed = assay type: in vivo, Ambrosia elatior
Text: as §1

nutsedge, yellow = assay type: in vivo, Cyperus esculentus
Text: as §1

nightshade = assay type: in vivo, Solanum ptycanthum
Text: as §1

SMILES	Plant response rating, Kochia (kochia; 31 g ai/ha)	Plant response rating, Kochia (kochia; 125 g ai/ha)	Plant response rating, Kochia (kochia; 250 g ai/ha)	Plant response rating, Barnyardgrass (barnyardgrass; 31 g ai/ha)	Plant response rating, Barnyardgrass (barnyardgrass; 62 g ai/ha)	Plant response rating, Barnyardgrass (barnyardgrass; 125 g ai/ha)	Plant response rating, Barnyardgrass (barnyardgrass; 250 g ai/ha)	Plant response rating, Panicum, Fall (panicum, fall; 31 g ai/ha)	Plant response rating, Panicum, Fall (panicum, fall; 62 g ai/ha)	Plant response rating, Panicum, Fall (panicum, fall; 125 g ai/ha)	Plant response rating, Crabgrass, Large (crabgrass, large; 31 g ai/ha)	Plant response rating, Crabgrass, Large (crabgrass, large; 62 g ai/ha)	Plant response rating, Crabgrass, Large (crabgrass, large; 125 g ai/ha)	Plant response rating, Crabgrass, Large (crabgrass, large; 250 g ai/ha)	Plant response rating, Ragweed (ragweed; 62 g ai/ha)	Plant response rating, Ragweed (ragweed; 125 g ai/ha)	Plant response rating, Ragweed (ragweed; 250 g ai/ha)	Plant response rating, Nutsedge, Yellow (nutsedge, yellow; 31 g ai/ha)	Plant response rating, Nutsedge, Yellow (nutsedge, yellow; 62 g ai/ha)	Plant response rating, Nutsedge, Yellow (nutsedge, yellow; 125 g ai/ha)	further results
O=C1NCC(c2ccc(C(F)(F)F)cc2)C1C(=O)Nc1ccc(F)c(F)c1F (stereo not shown) [Compound 232]	90	98	98	60	70	98	95	35	50	50	95	98	98	98	75	95	95	0	0	0	Plant response rating, Kochia (kochia; 62 g ai/ha): 95; Plant response rating, Panicum, Fall (panicum, fall; 250 g ai/ha): 60; Plant response rating, Ragweed (ragweed; 31 g ai/ha): 35; Plant response rating, Nutsedge, Yellow (nutsedge, yellow; 250 g ai/ha): 0; Plant response rating, Nightshade (nightshade; 31 g ai/ha): 25; Plant response rating, Nightshade (nightshade; 62 g ai/ha): 75; Plant response rating, Nightshade (nightshade; 125 g ai/ha): 98
O=C1NCC(c2ccc(F)cc2)C1C(=O)Nc1ccccc1F (racemic) [Compound 16]	0	0	0	0	0	10	70	0	0	0	20	30	75	98	0	0	0	0	0	0	Plant response rating, Barnyardgrass (barnyardgrass; 16 g ai/ha): 0; Plant response rating, Panicum, Fall (panicum, fall; 16 g ai/ha): 0; Plant response rating, Crabgrass, Large (crabgrass, large; 16 g ai/ha): 10; Plant response rating, Nutsedge, Yellow (nutsedge, yellow; 16 g ai/ha): 0; Plant response rating, Nutsedge, Yellow (nutsedge, yellow; 250 g ai/ha): 0; Plant response rating, Nightshade (nightshade; 16 g ai/ha): 0; Plant response rating, Nightshade (nightshade; 31 g ai/ha): 0; Plant response rating, Nightshade (nightshade; 62 g ai/ha): 0; Plant response rating, Nightshade (nightshade; 125 g ai/ha): 0; Plant response rating, Nightshade (nightshade; 250 g ai/ha): 0
O=C1NCC(c2cccc(Br)c2)C1C(=O)Nc1ccccc1F (stereo not shown) [Compound 66]	0	0	0	0	20	50	50	0	0	0	10	75	90	98	0	0	20	0	0	0	Plant response rating, Kochia (kochia; 16 g ai/ha): 0; Plant response rating, Kochia (kochia; 62 g ai/ha): 0; Plant response rating, Barnyardgrass (barnyardgrass; 16 g ai/ha): 0; Plant response rating, Panicum, Fall (panicum, fall; 16 g ai/ha): 0; Plant response rating, Panicum, Fall (panicum, fall; 250 g ai/ha): 0; Plant response rating, Crabgrass, Large (crabgrass, large; 16 g ai/ha): 0; Plant response rating, Ragweed (ragweed; 16 g ai/ha): 0; Plant response rating, Ragweed (ragweed; 31 g ai/ha): 0; Plant response rating, Nutsedge, Yellow (nutsedge, yellow; 16 g ai/ha): 0; Plant response rating, Nutsedge, Yellow (nutsedge, yellow; 250 g ai/ha): 0; Plant response rating, Nightshade (nightshade; 16 g ai/ha): 0; Plant response rating, Nightshade (nightshade; 31 g ai/ha): 0; Plant response rating, Nightshade (nightshade; 62 g ai/ha): 0; Plant response rating, Nightshade (nightshade; 250 g ai/ha): 0
